# Measurements reported in US20070037230A1 (priority 2005, published 2007).
# Legend:
# Assay type in all cases: binding
# [1] = system: biotinylated Bacillus anthracis spores
# Bacillus licheniformis = system: Bacillus licheniformis
# Bacillus thuringiensis = system: Bacillus thuringiensis
# Bacillus subtilis = system: Bacillus subtilis
# Bacillus megaterium = system: Bacillus megaterium
# [2] = system: Bacillus anthracis spores
# Bacillus cereus = system: Bacillus cereus
# [3] = system: Bacillus anthracis spores; remark: listed apart in the source
Sequence,binding in the ELISA [1],bound to Bacillus anthracis fold better than to Bacillus licheniformis (Bacillus licheniformis),bound to Bacillus anthracis fold better than to Bacillus thuringiensis (Bacillus thuringiensis),bound to Bacillus anthracis fold better than to Bacillus subtilis (Bacillus subtilis),bound to Bacillus anthracis fold better than to Bacillus megaterium (Bacillus megaterium),"binding in the phage-capture assay (percentage recovery, eluted to input phage) [2]",bound to Bacillus anthracis fold better than to Bacillus cereus (Bacillus cereus),binding of phage to spores in ELISA revealed with monoclonal antibody BD8 [3]
EPRLSPHS,high binding,70 fold,6.9 fold,39 fold,43 fold,high binding,3.5 fold,
DRTGATLT,,,,,,high binding,,
EPRAPASL,,,,,,high binding,,
VTRNTSAS,high binding,,,,,high binding,,specific binding
ETRVPHGA,high binding,12 fold,2.2 fold,24 fold,24 fold,,2.4 fold,
DARGTTHM,high binding,50 fold,2.1 fold,25 fold,75 fold,high binding,3.7 fold,
